Source: PubChem BioAssay (NCI)
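Five concentrations, 48 hours, 96-well plates. Definition used: TGI = concentration required for complete inhibition of growth.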

Tests used:
Test in all cases: growth of human tumour cells (NCI), 48 h
UO-31 renal = system: UO-31 renal
TK-10 renal = system: TK-10 renal
IGROV1 ovarian = system: IGROV1 ovarian
SW-620 colon = system: SW-620 colon
SNB-78 CNS = system: SNB-78 CNS
KM20L2 colon = system: KM20L2 colon
MALME-3M melanoma = system: MALME-3M melanoma
A498 renal = system: A498 renal
EKVX NSCLC = system: EKVX NSCLC
OVCAR-8 ovarian = system: OVCAR-8 ovarian
SF-539 CNS = system: SF-539 CNS
HCT-15 colon = system: HCT-15 colon
SF-268 CNS = system: SF-268 CNS
HOP-92 NSCLC = system: HOP-92 NSCLC
DLD-1 colon = system: DLD-1 colon
SK-OV-3 ovarian = system: SK-OV-3 ovarian
DMS 273 small cell lung = system: DMS 273 small cell lung
DMS 114 small cell lung = system: DMS 114 small cell lung
NCI-H522 lung = system: NCI-H522 lung
M14 melanoma = system: M14 melanoma
A549 NSCLC = system: A549 NSCLC
HOP-18 NSCLC = system: HOP-18 NSCLC
NCI-H226 lung = system: NCI-H226 lung
HCT-116 colon = system: HCT-116 colon
KM12 colon = system: KM12 colon
NCI-H460 lung = system: NCI-H460 lung
NCI-H23 lung = system: NCI-H23 lung
RXF-631 renal = system: RXF-631 renal
HOP-62 NSCLC = system: HOP-62 NSCLC
HCC-2998 colon = system: HCC-2998 colon
LXFL 529 NSCLC = system: LXFL 529 NSCLC
ACHN renal = system: ACHN renal
U251 CNS = system: U251 CNS
786-0 renal = system: 786-0 renal
SNB-75 CNS = system: SNB-75 CNS
SR leukemia = system: SR leukemia
RPMI-8226 leukemia = system: RPMI-8226 leukemia
K-562 leukemia = system: K-562 leukemia
SK-MEL-2 melanoma = system: SK-MEL-2 melanoma
CAKI-1 renal = system: CAKI-1 renal
HT29 colon = system: HT29 colon
SNB-19 CNS = system: SNB-19 CNS
MOLT-4 leukemia = system: MOLT-4 leukemia
OVCAR-3 ovarian = system: OVCAR-3 ovarian
XF 498 CNS = system: XF 498 CNS
SK-MEL-5 melanoma = system: SK-MEL-5 melanoma
CCRF-CEM leukemia = system: CCRF-CEM leukemia
SK-MEL-28 melanoma = system: SK-MEL-28 melanoma
UACC-257 melanoma = system: UACC-257 melanoma
UACC-62 melanoma = system: UACC-62 melanoma
OVCAR-4 ovarian = system: OVCAR-4 ovarian
RXF 393 renal = system: RXF 393 renal
SN12C renal = system: SN12C renal
OVCAR-5 ovarian = system: OVCAR-5 ovarian
HL-60(TB) leukemia = system: HL-60(TB) leukemia
COLO 205 colon = system: COLO 205 colon
LOX IMVI melanoma = system: LOX IMVI melanoma
M19-MEL melanoma = system: M19-MEL melanoma
SF-295 CNS = system: SF-295 CNS

In the case of `CCCCCCCCCCCCCC(=O)OCC(C[As](=O)(O)O)OC(=O)CCCCCCCCCCCCC` (stereo unspecified), the TGI (UO-31 renal) is reported as > 100 µM, the TGI (TK-10 renal) is reported as > 100 µM and the TGI (IGROV1 ovarian) is reported as > 100 µM. The TGI (SW-620 colon) was 47 µM, the TGI (SNB-78 CNS) was > 100 µM and the TGI (KM20L2 colon) was > 100 µM. The TGI (MALME-3M melanoma) was > 100 µM, the TGI (A498 renal) was > 100 µM and the TGI (EKVX NSCLC) was > 100 µM. The TGI (OVCAR-8 ovarian) was > 100 µM, the TGI (SF-539 CNS) was > 100 µM and the TGI (HCT-15 colon) was > 100 µM. The TGI (SF-268 CNS) was > 100 µM, the TGI (HOP-92 NSCLC) was > 100 µM and the TGI (DLD-1 colon) was > 100 µM. For the same compound, the TGI (SK-OV-3 ovarian) was > 100 µM, the TGI (DMS 273 small cell lung) was > 100 µM and the TGI (DMS 114 small cell lung) was > 100 µM. The TGI (NCI-H522 lung) was > 100 µM, the TGI (M14 melanoma) was > 100 µM and the TGI (A549 NSCLC) was > 100 µM. For the same compound, the TGI (HOP-18 NSCLC) was > 100 µM, the TGI (NCI-H226 lung) was > 100 µM and the TGI (HCT-116 colon) was > 100 µM. The TGI (KM12 colon) was > 100 µM, the TGI (NCI-H460 lung) was > 100 µM and the TGI (NCI-H23 lung) was > 100 µM. The TGI (RXF-631 renal) was > 100 µM, the TGI (HOP-62 NSCLC) was > 100 µM and the TGI (HCC-2998 colon) was > 100 µM. For the same compound, the TGI (LXFL 529 NSCLC) was > 100 µM, the TGI (ACHN renal) was > 100 µM and the TGI (U251 CNS) was > 100 µM. For the same compound, the TGI (786-0 renal) was > 100 µM, the TGI (SNB-75 CNS) was > 100 µM and the TGI (SR leukemia) was > 100 µM. The TGI (RPMI-8226 leukemia) was > 100 µM, the TGI (K-562 leukemia) was > 100 µM and the TGI (SK-MEL-2 melanoma) was > 100 µM. For the same compound, the TGI (CAKI-1 renal) was > 100 µM, the TGI (HT29 colon) was > 100 µM and the TGI (SNB-19 CNS) was > 100 µM. The TGI (MOLT-4 leukemia) was > 100 µM, the TGI (OVCAR-3 ovarian) was > 100 µM and the TGI (XF 498 CNS) was > 100 µM. The TGI (SK-MEL-5 melanoma) was > 100 µM, the TGI (CCRF-CEM leukemia) was > 100 µM and the TGI (SK-MEL-28 melanoma) was > 100 µM. For the same compound, the TGI (UACC-257 melanoma) was > 100 µM, the TGI (UACC-62 melanoma) was > 100 µM and the TGI (OVCAR-4 ovarian) was > 100 µM. The TGI (RXF 393 renal) was > 100 µM and the TGI (SN12C renal) was > 100 µM.

For `COC(=O)C(C(=O)c1ccccc1)C(C(=O)C(=O)Nc1ccc(OC)cc1OC)C(=O)C(=O)c1ccc(C)cc1` (stereo unspecified), the TGI (OVCAR-5 ovarian) was > 100 µM, the TGI (UO-31 renal) was > 100 µM and the TGI (TK-10 renal) was > 100 µM. For the same compound, the TGI (IGROV1 ovarian) was > 100 µM, the TGI (HL-60(TB) leukemia) was > 100 µM and the TGI (SW-620 colon) was > 100 µM. The TGI (COLO 205 colon) was > 100 µM, the TGI (SNB-78 CNS) was > 100 µM and the TGI (KM20L2 colon) was > 100 µM. For the same compound, the TGI (MALME-3M melanoma) was > 100 µM, the TGI (A498 renal) was > 100 µM and the TGI (EKVX NSCLC) was > 100 µM. For the same compound, the TGI (OVCAR-8 ovarian) was > 100 µM, the TGI (SF-539 CNS) was > 100 µM and the TGI (HCT-15 colon) was > 100 µM. For the same compound, the TGI (SF-268 CNS) was > 100 µM, the TGI (DLD-1 colon) was > 100 µM and the TGI (SK-OV-3 ovarian) was > 100 µM. The TGI (DMS 273 small cell lung) was > 100 µM, the TGI (LOX IMVI melanoma) was > 100 µM and the TGI (DMS 114 small cell lung) was > 100 µM. The TGI (NCI-H522 lung) was > 100 µM, the TGI (M14 melanoma) was > 100 µM and the TGI (A549 NSCLC) was > 100 µM. The TGI (HOP-18 NSCLC) was > 100 µM, the TGI (NCI-H226 lung) was > 100 µM and the TGI (HCT-116 colon) was > 100 µM. The TGI (KM12 colon) was > 100 µM, the TGI (NCI-H460 lung) was > 100 µM and the TGI (NCI-H23 lung) was > 100 µM. For the same compound, the TGI (RXF-631 renal) was > 100 µM, the TGI (HOP-62 NSCLC) was > 100 µM and the TGI (HCC-2998 colon) was > 100 µM. For the same compound, the TGI (LXFL 529 NSCLC) was > 100 µM, the TGI (ACHN renal) was > 100 µM and the TGI (U251 CNS) was > 100 µM. For the same compound, the TGI (786-0 renal) was > 100 µM, the TGI (SNB-75 CNS) was > 100 µM and the TGI (SR leukemia) was > 100 µM. The TGI (RPMI-8226 leukemia) was > 100 µM, the TGI (K-562 leukemia) was > 100 µM and the TGI (SK-MEL-2 melanoma) was > 100 µM. For the same compound, the TGI (CAKI-1 renal) was > 100 µM, the TGI (HT29 colon) was > 100 µM and the TGI (SNB-19 CNS) was > 100 µM. The TGI (M19-MEL melanoma) was > 100 µM, the TGI (MOLT-4 leukemia) was > 100 µM and the TGI (OVCAR-3 ovarian) was > 100 µM. For the same compound, the TGI (SF-295 CNS) was > 100 µM, the TGI (XF 498 CNS) was > 100 µM and the TGI (SK-MEL-5 melanoma) was > 100 µM. For the same compound, the TGI (CCRF-CEM leukemia) was > 100 µM, the TGI (SK-MEL-28 melanoma) was > 100 µM and the TGI (UACC-257 melanoma) was > 100 µM. For the same compound, the TGI (UACC-62 melanoma) was > 100 µM, the TGI (OVCAR-4 ovarian) was > 100 µM and the TGI (RXF 393 renal) was > 100 µM. The TGI (SN12C renal) was > 100 µM.
